Experimental data taken from paper PMC12491383, “Organ and tumour dosimetry of ^177Lu-rhPSMA-10.1, a novel PSMA-targeted therapy: results from a Phase I trial” (European Journal of Nuclear Medicine and Molecular Imaging, 2025).

Assay: SPECT/CT image-based normal organ dosimetry (MIRD S-value methodology), Phase I BET-PSMA-121
Assay type: in vivo, human
Details: for Cumulative Absorbed Dose, Bone Marrow, % of dose limit / Cumulative Absorbed Dose, Kidney, % of dose limit / Cumulative Absorbed Dose, Salivary Glands, % of dose limit / Cumulative Absorbed Dose, Bone Marrow / Cumulative Absorbed Dose, Kidney / Cumulative Absorbed Dose, Salivary Glands: Cohort B; for Cumulative Absorbed Dose, Bone Marrow, % of dose limit: limit 2 Gy; for Cumulative Absorbed Dose, Salivary Glands, % of dose limit: limit 24 Gy
Source text: Figure 1 provides a schematic representation of the study. Enrolled patients were sequentially entered into one of the two cohorts. Cohort A received 5.55 GBq (150 mCi) of ^177Lu-rhPSMA-10.1 and Cohort B received 7.40 GBq (200 mCi) of ^177Lu-rhPSMA-10.1. Subsequent doses were delivered at 6-week intervals subject to individual tolerability and safety assessments. Each patient received between one and three cycles, with a maximum of three cycles of treatment being permitted in this initial part of the study. All administrations of ^177Lu-rhPSMA-10.1 were performed using intravenous injection under the supervision of the treating physician.
Multi-bed single-photon emission computed tomography (SPECT)/CT was conducted at 3-, 24-, 48- and 168-hours post-^177Lu-rhPSMA-10.1 administration in each treatment cycle for the estimation of organ and tumour absorbed doses in each patient. Prior to commencement of the study, each investigating site was required to complete a calibration of their dose calibrator and SPECT/CT system to ensure harmonised quantification of the imaging data. Quantitative reconstructions and all dosimetry analyses were carried out centrally by an independent dosimetry vendor (Radiopharmaceutical Imaging and Dosimetry LLC, Baltimore, MD).
The specific absorbed doses (Gy/GBq) in normal organs and tumours were determined using the Medical Internal Radiation Dose (MIRD) Committee S-value methodology. Individual patient organ masses, determined via CT delineation, were scaled to reflect deviations from reference phantom geometry. Cumulative organ absorbed doses (Gy) were calculated across all treatment cycles. Further details on dosimetry methodology are provided in the supplemental materials and have been reported in accordance with EANM guidance.
All patients underwent multi-bed single-photon emission computed tomography (SPECT)/CT at 3-, 24-, 48- and 168-hours post-^177Lu-rhPSMA-10.1 administration during each treatment cycle. The acquisition parameters are shown in Supplemental Table S1. All images were centrally reconstructed in 3D-RD-S using the iterative Ordered Subsets Expectation-Maximization (OSEM) algorithm with 40 iterations and 5 subsets. Attenuation, scatter, and the Collimator-Detector Response Function (CDRF) were modelled during the iterative process using a rotation-based projector. CT-based attenuation compensation was performed using the attenuation map generated from the CT image. Scatter was modelled using the Effective Source Scatter Estimation (ESSE) method.
Reconstructed images were converted to activity concentration units (Becquerel (Bq)/millilitre (mL)) using the calibration factor generated for each individual imaging system. Organ masses were individually determined using CT-based delineations and longitudinal SPECT activity statistics were based on these same delineations.
Time integrated activity coefficients (TIACs) were calculated for each target tissue. This was done by fitting each time–activity curve with an exponential function (mono, bi, or exponential uptake and washout) and integrating from time 0 to infinity. The simpler function was preferred provided the fit was adequate ([…]).
The TIAC in the bone marrow was derived from contours drawn around the marrow inside lumbar vertebrae L3–L5. Where lesions were present in the lumbar area, contours were drawn around either the femur heads, scapula or sternum depending on the anatomical coverage. The TIAC was then divided by the marrow mass in this region to give the TIAC concentration. The total bone marrow TIAC was be obtained as the product of this concentration and the standard International Commission on Radiological Protection (ICRP) bone marrow mass.
The S-value methodology was used to estimate the target tissue dose. […]

[1] = Patient 4, 3 cycles, 22.94 GBq cumulative
[2] = Patient 5, 3 cycles, 22.29 GBq cumulative
[3] = Patient 6, 3 cycles, 22.59 GBq cumulative
[4] = Patient 7, 3 cycles, 22.29 GBq cumulative
[5] = Patient 8, 3 cycles, 22.86 GBq cumulative
[6] = Patient 9, 3 cycles, 22.10 GBq cumulative
[7] = Patient 10, 3 cycles, 23.30 GBq cumulative
[8] = Patient 11, 1 cycle, 7.80 GBq cumulative
[9] = Patient 12, 1 cycle, 7.46 GBq cumulative
[10] = Patient 13, 3 cycles, 22.23 GBq cumulative

**Q.** Which “Cumulative Absorbed Dose, Bone Marrow, % of dose limit” value [1] does the source give for `CC(C)(C)[Si](F)(c1ccc(C(=O)NC[C@@H](NC(=O)CN2CCN(CC(=O)[O-])CCN(CC(=O)[O-])CCN(CC(=O)[O-])CC2)C(=O)N[C@H](CCCCNC(=O)CCC(=O)NCCC[C@@H](NC(=O)CC[C@H](NC(=O)N[C@@H](CCC(=O)O)C(=O)O)C(=O)O)C(=O)O)C(=O)O)cc1)C(C)(C)C.[177Lu+3]` [^177Lu-rhPSMA-10.1] here?
**A.** 6.5%

**Q.** And the “Cumulative Absorbed Dose, Kidney, % of dose limit” value (Patient 4, 3 cycles, 22.94 GBq cumulative, limit 23 Gy)?
**A.** 36%

**Q.** What about the “Cumulative Absorbed Dose, Salivary Glands, % of dose limit” value [1] of the same compound?
**A.** 12%

**Q.** What about the “Cumulative Absorbed Dose, Bone Marrow” value [2] of the same compound?
**A.** 0.07 Gy

**Q.** What about the “Cumulative Absorbed Dose, Kidney” value [2] of the same compound?
**A.** 6.25 Gy

**Q.** And the “Cumulative Absorbed Dose, Salivary Glands” value [2]?
**A.** 2.85 Gy

**Q.** And the “Cumulative Absorbed Dose, Bone Marrow, % of dose limit” value [2]?
**A.** 3.5%

**Q.** What about the “Cumulative Absorbed Dose, Kidney, % of dose limit” value (Patient 5, 3 cycles, 22.29 GBq cumulative, limit 23 Gy) of the same compound?
**A.** 27%

**Q.** And the “Cumulative Absorbed Dose, Salivary Glands, % of dose limit” value [2]?
**A.** 12%

**Q.** What about the “Cumulative Absorbed Dose, Bone Marrow” value [3] of the same compound?
**A.** 0.42 Gy

**Q.** And the “Cumulative Absorbed Dose, Kidney” value [3]?
**A.** 7.31 Gy

**Q.** What about the “Cumulative Absorbed Dose, Salivary Glands” value [3] of the same compound?
**A.** 2.87 Gy

**Q.** What about the “Cumulative Absorbed Dose, Bone Marrow, % of dose limit” value [3] of the same compound?
**A.** 21%

**Q.** What about the “Cumulative Absorbed Dose, Kidney, % of dose limit” value (Patient 6, 3 cycles, 22.59 GBq cumulative, limit 23 Gy) of the same compound?
**A.** 32%

**Q.** And the “Cumulative Absorbed Dose, Salivary Glands, % of dose limit” value [3]?
**A.** 12%

**Q.** And the “Cumulative Absorbed Dose, Bone Marrow” value [4]?
**A.** 0.05 Gy

**Q.** And the “Cumulative Absorbed Dose, Kidney” value [4]?
**A.** 4.02 Gy

**Q.** And the “Cumulative Absorbed Dose, Salivary Glands” value [4]?
**A.** 2.88 Gy

**Q.** And the “Cumulative Absorbed Dose, Bone Marrow, % of dose limit” value [4]?
**A.** 2.5%

**Q.** And the “Cumulative Absorbed Dose, Kidney, % of dose limit” value (Patient 7, 3 cycles, 22.29 GBq cumulative, limit 23 Gy)?
**A.** 17%

**Q.** And the “Cumulative Absorbed Dose, Salivary Glands, % of dose limit” value [4]?
**A.** 12%

**Q.** What about the “Cumulative Absorbed Dose, Bone Marrow” value [5] of the same compound?
**A.** 0.24 Gy

**Q.** And the “Cumulative Absorbed Dose, Kidney” value [5]?
**A.** 5.18 Gy

**Q.** And the “Cumulative Absorbed Dose, Salivary Glands” value [5]?
**A.** 1.17 Gy

**Q.** And the “Cumulative Absorbed Dose, Bone Marrow, % of dose limit” value [5]?
**A.** 12%

**Q.** And the “Cumulative Absorbed Dose, Kidney, % of dose limit” value (Patient 8, 3 cycles, 22.86 GBq cumulative, limit 23 Gy)?
**A.** 23%

**Q.** And the “Cumulative Absorbed Dose, Salivary Glands, % of dose limit” value [5]?
**A.** 4.9%

**Q.** And the “Cumulative Absorbed Dose, Bone Marrow” value [6]?
**A.** 0.05 Gy

**Q.** And the “Cumulative Absorbed Dose, Kidney” value [6]?
**A.** 5.18 Gy

**Q.** And the “Cumulative Absorbed Dose, Salivary Glands” value [6]?
**A.** 2.00 Gy

**Q.** What about the “Cumulative Absorbed Dose, Bone Marrow, % of dose limit” value [6] of the same compound?
**A.** 2.5%

**Q.** And the “Cumulative Absorbed Dose, Kidney, % of dose limit” value (Patient 9, 3 cycles, 22.10 GBq cumulative, limit 23 Gy)?
**A.** 23%

**Q.** What about the “Cumulative Absorbed Dose, Salivary Glands, % of dose limit” value [6] of the same compound?
**A.** 8.3%

**Q.** What about the “Cumulative Absorbed Dose, Bone Marrow” value [7] of the same compound?
**A.** 0.03 Gy

**Q.** What about the “Cumulative Absorbed Dose, Kidney” value [7] of the same compound?
**A.** 4.29 Gy

**Q.** And the “Cumulative Absorbed Dose, Salivary Glands” value [7]?
**A.** 0.82 Gy

**Q.** And the “Cumulative Absorbed Dose, Bone Marrow, % of dose limit” value [7]?
**A.** 1.5%

**Q.** What about the “Cumulative Absorbed Dose, Kidney, % of dose limit” value (Patient 10, 3 cycles, 23.30 GBq cumulative, limit 23 Gy) of the same compound?
**A.** 19%

**Q.** What about the “Cumulative Absorbed Dose, Salivary Glands, % of dose limit” value [7] of the same compound?
**A.** 3.4%

**Q.** And the “Cumulative Absorbed Dose, Bone Marrow” value [8]?
**A.** 0.23 Gy

**Q.** And the “Cumulative Absorbed Dose, Kidney” value [8]?
**A.** 1.52 Gy

**Q.** What about the “Cumulative Absorbed Dose, Salivary Glands” value [8] of the same compound?
**A.** 0.88 Gy

**Q.** What about the “Cumulative Absorbed Dose, Bone Marrow, % of dose limit” value [8] of the same compound?
**A.** 11%

**Q.** And the “Cumulative Absorbed Dose, Kidney, % of dose limit” value (Patient 11, 1 cycle, 7.80 GBq cumulative, limit 23 Gy)?
**A.** 6.6%

**Q.** And the “Cumulative Absorbed Dose, Salivary Glands, % of dose limit” value [8]?
**A.** 3.7%

**Q.** And the “Cumulative Absorbed Dose, Bone Marrow” value [9]?
**A.** 0.04 Gy

**Q.** What about the “Cumulative Absorbed Dose, Kidney” value [9] of the same compound?
**A.** 1.71 Gy

**Q.** And the “Cumulative Absorbed Dose, Salivary Glands” value [9]?
**A.** 0.79 Gy

**Q.** And the “Cumulative Absorbed Dose, Bone Marrow, % of dose limit” value [9]?
**A.** 2.0%

**Q.** And the “Cumulative Absorbed Dose, Kidney, % of dose limit” value (Patient 12, 1 cycle, 7.46 GBq cumulative, limit 23 Gy)?
**A.** 7.4%

**Q.** What about the “Cumulative Absorbed Dose, Salivary Glands, % of dose limit” value [9] of the same compound?
**A.** 3.3%

**Q.** What about the “Cumulative Absorbed Dose, Bone Marrow” value [10] of the same compound?
**A.** 0.05 Gy

**Q.** And the “Cumulative Absorbed Dose, Kidney” value [10]?
**A.** 4.63 Gy

**Q.** And the “Cumulative Absorbed Dose, Salivary Glands” value [10]?
**A.** 3.40 Gy

**Q.** And the “Cumulative Absorbed Dose, Bone Marrow, % of dose limit” value [10]?
**A.** 2.5%

**Q.** And the “Cumulative Absorbed Dose, Kidney, % of dose limit” value (Patient 13, 3 cycles, 22.23 GBq cumulative, limit 23 Gy)?
**A.** 20%

**Q.** And the “Cumulative Absorbed Dose, Salivary Glands, % of dose limit” value [10]?
**A.** 14%

**Q.** And the “Cumulative absorbed doses versus historical EBRT organ dose limits” value (all patients, both dosing cohorts)?
**A.** below the historical external beam radiation therapy (EBRT) organ dose limits

**Q.** And the “Equivalent number of treatment cycles to reach the EBRT kidney dose limit of 23 Gy” value (at 7.4 GBq per cycle, range across the 13 patients)?
**A.** 6–17 cycles

**Q.** And the “Cumulative absorbed dose to the kidney as % of the EBRT dose limit, highest reached” value (limit 23 Gy, maximum of three cycles)?
**A.** ≤ 36%
